Measured values from publication PMC8429728, “TNK1 is a ubiquitin-binding and 14-3-3-regulated kinase that can be targeted to block tumor growth” (Nature Communications, 2021).
Where two headings read alike, the source gives them in different places.

What was measured:
Assay in all cases: biochemical
Parameters in all cases: Reaction Biology 371-kinase panel at Km ATP, per cent enzyme activity relative to DMSO, single dose in duplicate
[1] = target: ARK5/NUAK1 (Homo sapiens, UniProt O60285); conditions: duplicate measurements, Km ATP; read-out: % Enzyme Activity (relative to DMSO controls) / TP-0005801 (0.3µM) / Data 1
In short: (§1)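 Compound screened at 300 nM in vitro across a 371-kinase panel. Enzyme activity expressed as % of DMSO controls. IC50 values came from sigmoidal variable-slope dose-response fits with the bottom fixed at 0.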

[2] = target: CDK4/cyclin D1 (Homo sapiens, UniProt P11802); conditions: duplicate measurements, Km ATP
Sequence of CDK4/cyclin D1 (P11802 whole entry): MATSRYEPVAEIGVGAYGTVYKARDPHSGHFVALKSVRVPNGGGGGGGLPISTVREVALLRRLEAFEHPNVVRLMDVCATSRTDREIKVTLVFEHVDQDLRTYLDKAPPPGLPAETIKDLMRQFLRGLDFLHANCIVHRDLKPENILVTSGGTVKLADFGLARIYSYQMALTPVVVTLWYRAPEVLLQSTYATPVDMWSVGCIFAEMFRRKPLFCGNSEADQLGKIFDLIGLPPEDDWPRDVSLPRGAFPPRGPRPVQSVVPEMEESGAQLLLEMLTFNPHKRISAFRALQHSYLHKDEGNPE
Sequence of CDK4/cyclin D1 (P24385 whole entry partner): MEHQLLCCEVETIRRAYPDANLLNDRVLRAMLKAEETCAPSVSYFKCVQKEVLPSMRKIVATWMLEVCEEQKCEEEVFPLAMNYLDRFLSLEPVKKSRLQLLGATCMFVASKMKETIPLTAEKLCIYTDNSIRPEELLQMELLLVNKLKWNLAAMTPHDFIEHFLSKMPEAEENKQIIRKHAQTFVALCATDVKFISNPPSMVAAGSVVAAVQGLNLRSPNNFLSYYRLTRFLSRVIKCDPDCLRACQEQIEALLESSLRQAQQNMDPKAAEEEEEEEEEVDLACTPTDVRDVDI
In short: as §1

[3] = target: T1, CK1g1 (Homo sapiens, UniProt Q9HCP0); conditions: duplicate measurements, Km ATP
T1 construct: gene CSNK1G1
In short: as §1

[4] = target: DRAK1/STK17A (Homo sapiens, UniProt Q9UEE5); conditions: duplicate measurements, Km ATP
Sequence of DRAK1/STK17A (Q9UEE5 whole entry): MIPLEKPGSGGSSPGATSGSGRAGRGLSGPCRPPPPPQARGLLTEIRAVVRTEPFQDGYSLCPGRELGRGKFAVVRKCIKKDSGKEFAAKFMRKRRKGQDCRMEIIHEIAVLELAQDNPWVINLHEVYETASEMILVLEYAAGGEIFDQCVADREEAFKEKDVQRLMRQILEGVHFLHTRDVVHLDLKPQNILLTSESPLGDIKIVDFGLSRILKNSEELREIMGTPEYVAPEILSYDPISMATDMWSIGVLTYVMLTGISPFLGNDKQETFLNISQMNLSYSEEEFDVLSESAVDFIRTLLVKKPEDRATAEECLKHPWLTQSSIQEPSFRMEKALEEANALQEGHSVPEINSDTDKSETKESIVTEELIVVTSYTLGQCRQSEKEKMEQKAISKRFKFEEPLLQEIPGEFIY
In short: as §1

[5] = target: T2, DYRK4 (Homo sapiens, UniProt Q9NR20); conditions: duplicate measurements, Km ATP
T2 sequence (Q9NR20 1-520): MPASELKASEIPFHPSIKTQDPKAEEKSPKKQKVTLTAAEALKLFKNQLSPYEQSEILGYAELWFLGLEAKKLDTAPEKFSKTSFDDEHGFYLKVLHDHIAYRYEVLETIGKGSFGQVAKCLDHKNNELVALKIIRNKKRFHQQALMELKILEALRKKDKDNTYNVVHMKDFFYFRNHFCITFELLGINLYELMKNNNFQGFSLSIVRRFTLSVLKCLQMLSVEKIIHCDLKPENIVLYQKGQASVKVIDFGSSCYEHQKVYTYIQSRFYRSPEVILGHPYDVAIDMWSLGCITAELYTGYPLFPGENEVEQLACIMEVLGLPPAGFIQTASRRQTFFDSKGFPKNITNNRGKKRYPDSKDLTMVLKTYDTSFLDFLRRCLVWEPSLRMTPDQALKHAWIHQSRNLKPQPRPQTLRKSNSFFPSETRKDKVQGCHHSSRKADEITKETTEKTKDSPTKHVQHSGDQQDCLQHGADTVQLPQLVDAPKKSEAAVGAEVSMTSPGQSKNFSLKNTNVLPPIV
In short: as §1

[6] = target: HIPK1 (Homo sapiens, UniProt Q86Z02); conditions: duplicate measurements, Km ATP
In short: as §1

[7] = target: LATS1 (Homo sapiens, UniProt O95835); conditions: duplicate measurements, Km ATP
Sequence of LATS1 (O95835 whole entry): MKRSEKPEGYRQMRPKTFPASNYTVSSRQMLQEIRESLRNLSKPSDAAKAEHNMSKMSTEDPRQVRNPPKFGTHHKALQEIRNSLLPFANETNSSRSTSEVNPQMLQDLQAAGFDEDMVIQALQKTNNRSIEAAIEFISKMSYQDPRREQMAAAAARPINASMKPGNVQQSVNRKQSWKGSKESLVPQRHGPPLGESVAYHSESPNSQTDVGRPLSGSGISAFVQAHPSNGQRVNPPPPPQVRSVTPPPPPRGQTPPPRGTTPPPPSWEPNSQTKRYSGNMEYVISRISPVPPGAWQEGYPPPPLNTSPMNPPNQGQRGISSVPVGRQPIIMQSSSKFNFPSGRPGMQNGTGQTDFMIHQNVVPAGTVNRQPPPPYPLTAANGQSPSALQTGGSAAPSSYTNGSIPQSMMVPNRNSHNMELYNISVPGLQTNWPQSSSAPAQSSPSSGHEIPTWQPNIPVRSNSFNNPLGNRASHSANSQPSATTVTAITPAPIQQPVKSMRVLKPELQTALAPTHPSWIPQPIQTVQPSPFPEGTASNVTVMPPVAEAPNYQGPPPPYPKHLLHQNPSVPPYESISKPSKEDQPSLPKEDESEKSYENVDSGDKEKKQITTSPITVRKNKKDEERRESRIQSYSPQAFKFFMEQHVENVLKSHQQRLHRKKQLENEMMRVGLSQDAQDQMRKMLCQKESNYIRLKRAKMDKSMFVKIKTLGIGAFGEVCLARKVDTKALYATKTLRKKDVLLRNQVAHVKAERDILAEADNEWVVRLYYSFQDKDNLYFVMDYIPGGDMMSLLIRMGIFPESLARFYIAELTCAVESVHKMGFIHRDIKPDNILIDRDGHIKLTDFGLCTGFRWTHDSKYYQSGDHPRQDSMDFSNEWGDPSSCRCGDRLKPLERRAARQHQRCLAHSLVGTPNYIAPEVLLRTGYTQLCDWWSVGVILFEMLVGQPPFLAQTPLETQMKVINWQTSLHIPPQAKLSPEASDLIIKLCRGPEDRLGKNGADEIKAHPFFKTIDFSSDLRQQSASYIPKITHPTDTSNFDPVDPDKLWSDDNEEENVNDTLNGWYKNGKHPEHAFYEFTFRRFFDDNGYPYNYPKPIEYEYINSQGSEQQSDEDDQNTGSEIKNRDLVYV
In short: as §1

[8] = target: LRRK2 (Homo sapiens, UniProt Q5S007); conditions: duplicate measurements, Km ATP
In short: as §1

[9] = target: MST2/STK3 (Homo sapiens, UniProt Q13188); conditions: duplicate measurements, Km ATP
In short: as §1

[10] = target: T3, PKCb2 (Homo sapiens, UniProt P05771); conditions: duplicate measurements, Km ATP
T3 construct: gene PRKCB; isoform beta II
T3 sequence (P05771 whole entry, canonical isoform): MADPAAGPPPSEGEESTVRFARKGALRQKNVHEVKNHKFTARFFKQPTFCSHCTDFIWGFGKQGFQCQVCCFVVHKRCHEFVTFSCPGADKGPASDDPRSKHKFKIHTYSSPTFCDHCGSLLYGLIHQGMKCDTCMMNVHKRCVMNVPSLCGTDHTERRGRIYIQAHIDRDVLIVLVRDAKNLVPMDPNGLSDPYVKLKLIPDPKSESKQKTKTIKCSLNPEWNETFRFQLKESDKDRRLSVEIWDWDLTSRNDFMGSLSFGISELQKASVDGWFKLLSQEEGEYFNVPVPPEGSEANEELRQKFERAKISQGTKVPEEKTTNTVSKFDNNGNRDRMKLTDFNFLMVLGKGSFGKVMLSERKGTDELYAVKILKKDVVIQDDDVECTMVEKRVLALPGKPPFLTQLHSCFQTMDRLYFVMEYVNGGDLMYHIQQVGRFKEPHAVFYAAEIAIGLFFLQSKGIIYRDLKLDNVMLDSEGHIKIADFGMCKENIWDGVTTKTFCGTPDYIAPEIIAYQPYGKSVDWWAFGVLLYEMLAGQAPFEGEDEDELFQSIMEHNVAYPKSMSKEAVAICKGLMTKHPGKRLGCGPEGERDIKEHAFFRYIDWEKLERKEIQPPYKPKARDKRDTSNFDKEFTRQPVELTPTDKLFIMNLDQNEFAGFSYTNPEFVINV
In short: as §1

[11] = target: ROS/ROS1 (Homo sapiens, UniProt P08922); conditions: duplicate measurements, Km ATP
In short: as §1

[12] = target: T4, RSK4 (Homo sapiens, UniProt Q9UK32); conditions: duplicate measurements, Km ATP
T4 construct: gene RPS6KA6
In short: as §1

[13] = target: TNIK (Homo sapiens, UniProt Q9UKE5); conditions: duplicate measurements, Km ATP
Sequence of TNIK (Q9UKE5 whole entry): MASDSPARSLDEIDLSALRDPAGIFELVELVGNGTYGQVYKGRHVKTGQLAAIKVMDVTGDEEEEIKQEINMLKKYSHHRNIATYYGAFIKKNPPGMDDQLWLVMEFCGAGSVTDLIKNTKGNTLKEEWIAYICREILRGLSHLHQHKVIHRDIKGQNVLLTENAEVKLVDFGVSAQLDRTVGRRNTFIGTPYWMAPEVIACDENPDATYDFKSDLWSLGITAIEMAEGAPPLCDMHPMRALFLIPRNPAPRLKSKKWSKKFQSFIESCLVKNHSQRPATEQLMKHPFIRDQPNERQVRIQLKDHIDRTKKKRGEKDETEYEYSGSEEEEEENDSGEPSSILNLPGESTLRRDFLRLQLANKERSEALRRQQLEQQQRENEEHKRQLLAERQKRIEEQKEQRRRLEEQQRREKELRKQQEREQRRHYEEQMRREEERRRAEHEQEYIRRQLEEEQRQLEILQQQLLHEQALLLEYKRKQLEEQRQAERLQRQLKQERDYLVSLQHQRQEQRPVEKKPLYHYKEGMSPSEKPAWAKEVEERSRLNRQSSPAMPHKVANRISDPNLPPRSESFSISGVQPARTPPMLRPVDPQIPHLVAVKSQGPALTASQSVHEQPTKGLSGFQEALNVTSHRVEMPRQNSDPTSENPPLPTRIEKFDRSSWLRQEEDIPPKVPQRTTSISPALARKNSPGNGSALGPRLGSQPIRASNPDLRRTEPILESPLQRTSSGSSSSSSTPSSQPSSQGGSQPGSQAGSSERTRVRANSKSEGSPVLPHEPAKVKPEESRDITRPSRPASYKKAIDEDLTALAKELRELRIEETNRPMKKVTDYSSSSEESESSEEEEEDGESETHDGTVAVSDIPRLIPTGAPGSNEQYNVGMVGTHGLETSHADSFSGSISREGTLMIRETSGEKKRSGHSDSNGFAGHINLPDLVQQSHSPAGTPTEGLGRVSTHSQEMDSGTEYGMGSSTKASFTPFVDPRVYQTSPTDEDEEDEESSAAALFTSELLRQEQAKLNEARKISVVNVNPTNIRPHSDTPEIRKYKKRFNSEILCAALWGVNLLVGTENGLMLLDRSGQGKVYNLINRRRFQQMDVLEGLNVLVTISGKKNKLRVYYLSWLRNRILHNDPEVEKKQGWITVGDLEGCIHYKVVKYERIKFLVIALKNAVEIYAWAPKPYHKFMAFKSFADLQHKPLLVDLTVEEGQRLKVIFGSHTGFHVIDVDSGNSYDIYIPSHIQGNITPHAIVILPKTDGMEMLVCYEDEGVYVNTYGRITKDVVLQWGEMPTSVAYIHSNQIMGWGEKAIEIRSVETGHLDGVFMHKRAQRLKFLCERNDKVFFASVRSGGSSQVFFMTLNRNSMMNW
In short: as §1

[14] = target: YES/YES1 (Homo sapiens, UniProt P07947); conditions: duplicate measurements, Km ATP
In short: as §1

[15] = target: T5, ZAK/MLTK (Homo sapiens, UniProt Q9NYL2); conditions: duplicate measurements, Km ATP
T5 construct: gene MAP3K20
T5 sequence (Q9NYL2 whole entry): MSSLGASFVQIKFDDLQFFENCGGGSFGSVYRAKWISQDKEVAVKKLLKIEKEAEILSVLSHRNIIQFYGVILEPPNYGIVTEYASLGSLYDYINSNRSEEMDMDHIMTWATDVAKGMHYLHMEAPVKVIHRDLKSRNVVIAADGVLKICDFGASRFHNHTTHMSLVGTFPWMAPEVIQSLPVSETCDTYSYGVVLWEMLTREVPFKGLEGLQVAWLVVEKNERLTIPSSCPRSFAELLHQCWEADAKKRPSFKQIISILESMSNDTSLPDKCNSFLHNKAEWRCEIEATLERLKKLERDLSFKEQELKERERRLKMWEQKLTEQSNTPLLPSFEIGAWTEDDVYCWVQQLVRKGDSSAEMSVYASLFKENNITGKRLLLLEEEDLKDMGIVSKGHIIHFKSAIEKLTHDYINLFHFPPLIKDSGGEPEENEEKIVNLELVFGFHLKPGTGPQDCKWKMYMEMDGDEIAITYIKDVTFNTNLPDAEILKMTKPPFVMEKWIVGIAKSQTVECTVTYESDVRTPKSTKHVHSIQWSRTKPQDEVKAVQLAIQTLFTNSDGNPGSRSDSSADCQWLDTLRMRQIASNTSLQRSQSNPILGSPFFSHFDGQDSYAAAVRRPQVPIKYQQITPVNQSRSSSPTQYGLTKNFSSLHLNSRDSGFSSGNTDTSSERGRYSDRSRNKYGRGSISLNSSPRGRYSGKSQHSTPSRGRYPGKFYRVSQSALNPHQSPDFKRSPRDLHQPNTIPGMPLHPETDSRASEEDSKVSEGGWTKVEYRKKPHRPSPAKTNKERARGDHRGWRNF
In short: as §1

[16] = target: ZAP70 (Homo sapiens, UniProt P43403); conditions: duplicate measurements, Km ATP
In short: as §1

[17] = read-out: % Enzyme Activity (relative to DMSO controls) / TP-0005801 (0.3µM) / Data 1
[18] = read-out: % Enzyme Activity (relative to DMSO controls) / TP-0005801 (0.3µM) / Data 2

COc1cc(N2CCN(C)CC2)c(C)cc1Nc1ncc(Br)c(Nc2cccnc2N(C)C)n1 [TP-5801]
remaining activity at 0.3 µM [1]: 14.2%
remaining activity at 0.3 µM [2, 17]: 106%
remaining activity at 0.3 µM [2, 18]: 104%
remaining activity at 0.3 µM [3, 17]: 88.5%
remaining activity at 0.3 µM [3, 18]: 87.8%
remaining activity at 0.3 µM [4, 17]: 92%
remaining activity at 0.3 µM [4, 18]: 88.6%
remaining activity at 0.3 µM [5, 17]: 104%
remaining activity at 0.3 µM [5, 18]: 99.2%
remaining activity at 0.3 µM [6, 17]: 90.8%
remaining activity at 0.3 µM [6, 18]: 89.2%
remaining activity at 0.3 µM [7, 17]: 103%
remaining activity at 0.3 µM [7, 18]: 102%
remaining activity at 0.3 µM [8, 17]: 8.89%
remaining activity at 0.3 µM [8, 18]: 8.22%
remaining activity at 0.3 µM [9, 17]: 97.7%
remaining activity at 0.3 µM [9, 18]: 97.5%
remaining activity at 0.3 µM [10, 17]: 94.4%
remaining activity at 0.3 µM [10, 18]: 93.6%
remaining activity at 0.3 µM [11, 17]: 10.1%
remaining activity at 0.3 µM [11, 18]: 9.96%
remaining activity at 0.3 µM [12, 17]: 79.4%
remaining activity at 0.3 µM [12, 18]: 77.9%
remaining activity at 0.3 µM [13, 17]: 49.6%
remaining activity at 0.3 µM [13, 18]: 48.7%
remaining activity at 0.3 µM [14, 17]: 87.4%
remaining activity at 0.3 µM [14, 18]: 85.4%
remaining activity at 0.3 µM [15, 17]: 103%
remaining activity at 0.3 µM [15, 18]: 101%
remaining activity at 0.3 µM [16, 17]: 95.5%
remaining activity at 0.3 µM [16, 18]: 91.3%
